{
  "source": "patent US5312625A",
  "about": "“Fused 7-membered cyclic compound and antipsychotic preparation containing the same” (Suntory Limited, priority 1990, dated 1994)",
  "data": [
    {"biological_target": "T1, serotonin receptor (Rattus norvegicus, UniProt P19327)", "T1 construct": "To a cerebral cortex nucleated from a Wistar-strain male rat; from tissue; host or cells: cerebral cortex of male Wistar rat (membrane preparation)", "T1 sequence (P19327 1-422)": "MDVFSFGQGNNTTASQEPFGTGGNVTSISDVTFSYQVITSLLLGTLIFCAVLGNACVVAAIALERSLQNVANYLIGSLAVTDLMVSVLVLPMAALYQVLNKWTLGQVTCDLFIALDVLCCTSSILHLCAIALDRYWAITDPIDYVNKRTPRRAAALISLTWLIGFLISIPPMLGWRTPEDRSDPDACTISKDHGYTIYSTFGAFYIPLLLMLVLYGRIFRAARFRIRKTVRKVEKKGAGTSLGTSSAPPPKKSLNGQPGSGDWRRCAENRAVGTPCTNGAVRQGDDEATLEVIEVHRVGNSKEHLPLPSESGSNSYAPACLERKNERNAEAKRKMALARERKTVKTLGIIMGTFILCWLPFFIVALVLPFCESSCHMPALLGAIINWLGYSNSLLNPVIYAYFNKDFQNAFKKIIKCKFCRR", "experiment": "Affinity for serotonin receptor, [3H]8-OHDPAT binding test in rat cerebral cortex", "parameters": "species or system rat (Wistar-strain male)", "settings": "[3H]8-OHDPAT 0.4 nM; rat cerebral cortex membranes; pH 7.4; 25° C., 30 minutes; read-out: [^3 H]-8-OH-DPAT IC50", "procedure": "The experiment was carried out according to the method of S. T. Perouka (J. Neurochem., 47, 529-540 (1986)).\nTo a cerebral cortex nucleated from a Wistar-strain male rat was added 50 mM Tris-HCl (pH 7.7) buffer, and the mixture was homogenized by a Polytron®. The homogenate was centrifuged at 40,000 G for 10 minutes, and the same buffer was added to the precipitate obtained, followed by homogenization and incubation at 37° C. for 30 minutes. The suspension was again subjected to centrifugation at 40,000 G for 10 minutes, and the same buffer was added to the precipitate, followed by homogenization and a further centrifugation at 40,000 G for 10 minutes. To the final precipitate obtained was added 50 mM Tris-HCl (10 μM pargyline, 4 mM CaCl2 0.1% ascorbic acid) (pH 7.4), and the mixture was homogenized and used for the binding test. The [^3 H]8-OHDPAT used for the binding test was 0.4 nM, with the protein amount being 0.4 to 0.6 mg/ml and the total amount 1 ml. After incubation at 25° C. for 30 minutes, the mixture was filtered by the filtration method, using the Whatman GF/B filter, and the filter was washed 3 times with 5 ml of the same buffer. To the filter was added a scintillation cocktail, followed by a measurement by a liquid scintillation counter.", "units": {"IC50": "µM"}, "values": [
      {"compound": "O=C1CSc2ccccc2C(=O)N1CCCCN1CCN(c2ccccc2)CC1", "note": "[Example 17]", "IC50": 0.00929},
      {"compound": "O=C1CSc2ccccc2C(=O)N1CCCCN1CCN(c2ccccn2)CC1", "note": "[Example 18, 4-(4-(4-(2-pyridyl)piperazinyl)butyl)-2,3,4,5-tetrahydro-1,4-benzothiazeoine-3,5-dione]", "IC50": 0.00328},
      {"compound": "O=C1CSc2ccccc2C(=O)N1CCCCN1CCN(c2ncccn2)CC1", "note": "[Example 19, 4-(4-(4-(2-pyrimidinyl)piperadinyl)butyl)-2,3,4,5-tetrahydro-1,4-benzothiazepine-3,5-dione]", "IC50": 0.0143},
      {"compound": "O=C1CNc2ccccc2C(=O)N1CCCCN1CCN(c2ccccn2)CC1", "note": "[Example 21, 4-(4-(4-(2-pyridyl)piperazinyl)butyl)-2,3,4,5-tetrahydro-1,4-benzodiazepine-3,5-dione]", "IC50": 0.0133},
      {"compound": "O=C1CNc2ccccc2C(=O)N1CCCCN1CCN(c2ncccn2)CC1", "note": "[Example 22, 4-(4-(4-(2-pyrimidinyl)piperazinyl)butyl)-2,3,4,5-tetrahydro-1,4-benzodiazepine-3,5-dione]", "IC50": 0.0673},
      {"compound": "CN1CC(=O)N(CCCCN2CCN(c3ccccn3)CC2)C(=O)c2ccccc21", "note": "[Example 24, 1-methyl-4-(4-(4-(2-pyridyl)piperazinyl)butyl)-2,3,4,5-tetrahydro-1,4-benzodiazepine-3,5-dione]", "IC50": 0.0614},
      {"compound": "CN1CC(=O)N(CCCCN2CCN(c3ncccn3)CC2)C(=O)c2ccccc21", "note": "[Example 25]", "IC50": 0.27},
      {"compound": "O=C1CCc2ccccc2C(=O)N1CCCCN1CCN(c2ccccn2)CC1", "note": "[Example 27, 2-(4-(4-(2-pyridyl)piperazinyl)butyl)-1,3,4,5-tetrahydro-2-benzazepine-1,3-dione]", "IC50": 0.0171},
      {"compound": "O=C1CCc2ccccc2C(=O)N1CCCCN1CCN(c2ncccn2)CC1", "note": "[Example 28, 2-(4-(4-(2-pyrimidinyl)piperazinyl)butyl)-1,3,4,5-tetrahydro-2-benzazepine-1,3-dione]", "IC50": 0.0584}
    ]}
  ]
}
